# Test results reported in patent US6555091B1, “Polypeptide capable of reacting with antibodies of patients suffering from multiple sclerosis and uses” (Bio Merieux, priority 1997, dated 2003).
# No end group written: not given here.
# System: IgG of sera from MS patients and healthy individuals
# Assay: ELISA of biotinylated synthetic peptides, IgG response of individual human sera
# Format: binding
# Conditions: for MEAN / OD 1 / OD 2 / OD 3 / BASELINE (mark: above cut-off): 1/100
# Experimental: Depending on the information obtained from the preceding examples, the hexapeptides SEQ ID NO: 3 and SEQ ID NO: 4 were synthesized and biotinylated according to the method described in Patent Application No. EP 93420183 with the following modifications: the peptide still bound to the resin is selectively deprotected at the N-terminal position. After overnight incubation with the biotin-NHS at 50% in DMF, the peptide is then cleaved from the resin and treated as described in the patent cited above.
# The wells of a Maxisorb (trade name, Nunc) microtiter plate are saturated with 100 μl of a 50 mM NaHCO3 solution, pH 9.6, containing 10 μg/ml of streptavidin for 2 hours at 37° C. The plate is washed with TBS/0.05% Tween 20 buffer. The wells are then saturated with 250 μl of wash buffer supplemented with 10% goat serum for 1 hour at 37° C. and then washed as described above.
# The sera to be analyzed are diluted 1/100 in saturation buffer, supplemented with 0.05% Tween 20 and incubated for 2 hours at 37° C. After washing, a solution of peroxidase-labeled anti-human immunoglobulin G goat antibody conjugate (marketed by Jackson Immuno Research Laboratories Inc.) is added at the dilution of 1/10,000 and the plates are incubated for 1 hour at 37° C. After washes, the ortho-phenylenediamine (OPD) substrate is added and the reaction is stopped after 10 minutes by adding 50 μl of H2SO4. The optical density is read at 492 nm.
# In a test carried out with 1/100 dilutions of 11 English sera from MS patients at the remission stage and 4 negative English sera, the peptides SEQ ID NOs: 3 and 4 are recognized by 4 sera out of 11 which give a positive IgG signal compared with the negative serum which gave the highest signal.
# [1] = IgG, serum 33/6 (MS+, remission)
# [2] = IgG, serum 33/8 (MS+, remission)
# [3] = IgG, serum 33/18 (MS+, remission)
# [4] = IgG, serum No. 12 (MS−, healthy)
# [5] = IgG, serum No. 13 (MS−, healthy)
# [6] = IgG, serum No. 14 (MS−, healthy)
# [7] = IgG, serum No. 15 (MS−, healthy)
# [8] = IgG, serum QS 2 (MS+, remission)
# [9] = IgG, serum QS 3 (MS+, remission)
# [10] = IgG, serum QS 4 (MS+, remission)
# [11] = IgG, serum QS 6 (MS+, remission)
# [12] = IgG, serum QS 7 (MS+, remission)
# [13] = IgG, serum QS 8 (MS+, remission)
# [14] = IgG, serum QS 11 (MS+, remission)
# [15] = IgG, serum QS 12 (MS+, remission)
substance,measurement,setting,value
STGRPL [SEQ ID NO: 4],MS sera giving a positive IgG signal compared with the negative serum which gave the highest signal,"1/100 dilutions of 11 sera from MS patients at the remission stage, 4 negative sera",4 sera out of 11
same,"MS sera recognizing the peptide significantly, cut-off mean of negative sera plus 3 times the standard deviation","IgG, 1/100 dilutions of 11 MS remission sera, 4 negative sera",3 sera out of 11
same,BASELINE,"IgG, cut-off, mean of negative sera plus 3 times the standard deviation",674 optical density (×1000)
same,MEAN,[1],496 optical density (×1000)
same,OD 1,[1],465 optical density (×1000)
same,OD 2,[1],496 optical density (×1000)
same,OD 3,[1],525 optical density (×1000)
same,BASELINE (mark: above cut-off),[2],X (the mean of the values obtained with the negative sera is calculated and 3 times the standard deviation is added in order to determine a cut-off)
same,MEAN,[2],807 optical density (×1000)
same,OD 1,[2],849 optical density (×1000)
same,OD 2,[2],820 optical density (×1000)
same,OD 3,[2],753 optical density (×1000)
same,MEAN,[3],267 optical density (×1000)
same,OD 1,[3],258 optical density (×1000)
same,OD 2,[3],243 optical density (×1000)
same,OD 3,[3],299 optical density (×1000)
same,MEAN,[4],518 optical density (×1000)
same,OD 1,[4],567 optical density (×1000)
same,OD 2,[4],518 optical density (×1000)
same,OD 3,[4],469 optical density (×1000)
same,MEAN,[5],271 optical density (×1000)
same,OD 1,[5],286 optical density (×1000)
same,OD 2,[5],278 optical density (×1000)
same,OD 3,[5],268 optical density (×1000)
same,MEAN,[6],359 optical density (×1000)
same,OD 1,[6],322 optical density (×1000)
same,OD 2,[6],401 optical density (×1000)
same,OD 3,[6],354 optical density (×1000)
same,MEAN,[7],442 optical density (×1000)
same,OD 1,[7],423 optical density (×1000)
same,OD 2,[7],432 optical density (×1000)
same,OD 3,[7],470 optical density (×1000)
same,MEAN,[8],277 optical density (×1000)
same,OD 1,[8],267 optical density (×1000)
same,OD 2,[8],296 optical density (×1000)
same,OD 3,[8],267 optical density (×1000)
same,MEAN,[9],624 optical density (×1000)
same,OD 1,[9],668 optical density (×1000)
same,OD 2,[9],618 optical density (×1000)
same,OD 3,[9],585 optical density (×1000)
same,BASELINE (mark: above cut-off),[10],X (the mean of the values obtained with the negative sera is calculated and 3 times the standard deviation is added in order to determine a cut-off)
same,MEAN,[10],1026 optical density (×1000)
same,OD 1,[10],1096 optical density (×1000)
same,OD 2,[10],1120 optical density (×1000)
same,OD 3,[10],862 optical density (×1000)
same,MEAN,[11],206 optical density (×1000)
same,OD 1,[11],204 optical density (×1000)
same,OD 2,[11],212 optical density (×1000)
same,OD 3,[11],201 optical density (×1000)
same,BASELINE (mark: above cut-off),[12],X (the mean of the values obtained with the negative sera is calculated and 3 times the standard deviation is added in order to determine a cut-off)
same,MEAN,[12],1380 optical density (×1000)
same,OD 1,[12],1379 optical density (×1000)
same,OD 2,[12],1437 optical density (×1000)
same,OD 3,[12],1323 optical density (×1000)
same,MEAN,[13],552 optical density (×1000)
same,OD 1,[13],523 optical density (×1000)
same,OD 2,[13],504 optical density (×1000)
same,OD 3,[13],630 optical density (×1000)
same,MEAN,[14],269 optical density (×1000)
same,OD 1,[14],272 optical density (×1000)
same,OD 2,[14],273 optical density (×1000)
same,OD 3,[14],261 optical density (×1000)
same,MEAN,[15],237 optical density (×1000)
same,OD 1,[15],271 optical density (×1000)
same,OD 2,[15],227 optical density (×1000)
same,OD 3,[15],212 optical density (×1000)
